According to article PMC3713518, “Structure-based discovery of fiber-binding compounds that reduce the cytotoxicity of amyloid beta” (eLife, 2013):

Key:
KLVFFA (Aβ16–21) fibers = target: T1, KLVFFA (Aβ16–21) fibers (Homo sapiens, UniProt P05067); test: 1H NMR titration of compound with fibers; format: binding
T1 construct: gene APP; fibrils grown 3 months; segment of Abeta cut from APP polyprotein

Aβ1–42 fibers = target: T2, Aβ1–42 fibers (Homo sapiens, UniProt P05067); test: 1H NMR of compound with fibers; conditions: PBS pH 7.4, 283 K; binding to full-length Abeta fibers
T2 construct: gene APP; residues 1-42 of Abeta from APP polyprotein; E. coli His-(NANP)19-TEV fusion, tag cut by TEV; fibrils grown 2 months
T2 sequence (P05067 672-713): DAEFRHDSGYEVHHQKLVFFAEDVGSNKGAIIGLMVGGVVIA
Description: 1H NMR of compound with fibers on Aβ1–42 fibers

| Compound | Kd (KLVFFA (Aβ16–21) fibers) | Binding to Aβ fiber / NMR peak reduction (%) (Aβ1–42 fibers) |
| --- | --- | --- |
| O=S(=O)(O)c1cc(S(=O)(=O)O)c2c(N=Nc3ccccc3)c(O)ccc2c1 [orange G] | 43 ± 21 µM | 6% |
| O=C1OC2(c3ccccc31)c1cc(Br)c(O)c(Br)c1Oc1c2cc(Br)c(O)c1Br [BAF1] | 12 ± 7 µM | 8% |
| Cc1ccc(O)c(N=Nc2c(O)cc(S(=O)(=O)O)c3ccccc23)c1 [BAF8] | 24 ± 5 µM | 13% |
